According to ChEMBL document CHEMBL5137017, “Identification of NVP-CLR457 as an Orally Bioavailable Non-CNS-Penetrant pan-Class IA Phosphoinositol-3-Kinase Inhibitor” (J Med Chem, 2022):
pIC50: −log10 of the molar value. Converted amounts (≈) assume the structure as drawn. The source made the active and inactive calls. The rule behind the calls is not given here.

Key:
[1] = Inhibition of PI3K PTEN mutant in human HCC70 cells assessed as reduction in phosphorylation of AKT at Ser473 residue by Western blot analysis; assay type: cell-based
[2] = Dose normalized AUC in beagle dog at 0.1 mg/kg, iv measured upto 24 hrs by LC-MS/MS analysis; assay type: ADME, organism-based, Canis lupus familiaris; conditions: in vivo
[3] = Clast in athymic nude mouse xenografted with rat Rat1 cells expressing myr-p110alpha at 3 mg/kg, po measured after 8 days by LC-MS/MS analysis; assay type: ADME, organism-based; conditions: in vivo, time 8 day, read-out: Clast
[4] = Half life in OF1 mouse at 10 mg/kg,po or 3 mg/kg,iv measured upto 24 hrs by LC-MS/MS analysis; assay type: ADME, organism-based; conditions: in vivo
[5] = In vivo Inhibition of AKT phosphorylation at Ser473 residue in athymic nude mouse xenografted with rat Rat1-myr-p110alpha cells at 3 mg/kg, po qd measured after 1 hr; assay type: functional
Rat1 [6] = assay: Antitumor activity at rat Rat1 cells expressing myr-p110alpha xenografted in athymic nude mouse assessed as T/C ratio at 20 mg/kg, po qd measured after 14 to 22 days; assay type: functional; conditions: time 14-22 day
[7] = Plasma protein binding in beagle dog plasma at 0.3 mg/kg,po or 0.1 mg/kg,iv measured after 4 hrs by rapid equilibrium dialysis method; assay type: ADME, organism-based, Canis lupus familiaris; conditions: read-out: PPB (converted)
[8] = Tmax in Sprague-Dawley rat at 30 mg/kg, po measured upto 24 hrs by LC-MS/MS analysis; assay type: ADME, organism-based; conditions: in vivo
Caco-2 = assay: Nonspecific permeability coefficient in human Caco-2 cells at 0.25 to 30 uM measured after 120 mins by LC-MS/MS analysis; assay type: ADME, cell-based; conditions: caco-2, 2 h, dose 0.25-30 µM
[9] = Dose normalized Cmax in Sprague-Dawley rat at 100 mg/kg, po measured upto 24 hrs by LC-MS/MS analysis; assay type: ADME, organism-based; conditions: in vivo
[10] = Tmax in beagle dog at 3 mg/kg, po measured upto 24 hrs by LC-MS/MS analysis; assay type: ADME, organism-based, Canis lupus familiaris; conditions: in vivo
[11] = Stability in rat liver microsomes assessed as hepatic extraction preincubated for 3 mins followed by NADPH addition and measured after 60 mins; assay type: ADME, Microsome; conditions: read-out: ERH
[12] = Antitumor activity at patient derived human HBRX2524 xenografted in athymic nude mouse assessed as T/C ratio at 40 mg/kg, po qd measured upto 16 days; assay type: functional; conditions: time <= 16 day
[13] = Tmax in beagle dog at 0.3 mg/kg, po measured upto 24 hrs by LC-MS/MS analysis; assay type: ADME, organism-based, Canis lupus familiaris; conditions: in vivo
[14] = Drug concentration in OF1 mouse brain at 1 mg/kg, iv measured at 1 hr post dose by LC-MS/MS analysis; assay type: ADME, organism-based; conditions: in vivo
[15] = Dose normalized AUC in Sprague-Dawley rat at 100 mg/kg, po measured upto 24 hrs by LC-MS/MS analysis; assay type: ADME, organism-based; conditions: in vivo
[16] = AUC(0 to Tlast) in athymic nude mouse xenografted with rat Rat1 cells expressing myr-p110alpha at 3 mg/kg, po measured after 8 days by LC-MS/MS analysis; assay type: ADME, organism-based; design: time 8 day, dose 3 mg/kg, route po; conditions: in vivo
Rat1 [17] = assay: Antitumor activity at rat Rat1 cells expressing myr-p110delta xenografted in athymic nude mouse assessed as T/C ratio at 20 mg/kg, po bid measured after 7 to 15 days; assay type: functional; conditions: time 7-15 day
[18] = Volume of distribution at steady state in Sprague-Dawley rat at 3 mg/kg, po or iv measured upto 24 hrs by LC-MS/MS analysis; assay type: ADME, organism-based; conditions: in vivo
[19] = Tlast in athymic nude mouse xenografted with rat Rat1 cells expressing myr-p110alpha at 40 mg/kg, po measured after 8 days by LC-MS/MS analysis; assay type: ADME, organism-based; conditions: in vivo, 192 h, time 8 day
[20] = Efflux ratio of apparent permeability from […] in human Caco-2 cells at 10 uM incubated upto 120 mins by LC-MS/MS analysis; assay type: ADME, cell-based; conditions: caco-2, 2 h
[21] = Half life in Sprague-Dawley rat at 3 mg/kg, po or iv measured upto 24 hrs by LC-MS/MS analysis; assay type: ADME, organism-based; conditions: in vivo
[22] = Aqueous solubility of compound in buffer at pH 6.8 by HPLC analysis; assay type: physicochemical
[23] = target: Serine/threonine-protein kinase mTOR (Homo sapiens, UniProt P42345); assay: Displacement of Alexa Fluor labelled Tracer-314 from human N-terminal GST-tagged mTOR incubated for 1 hr by TR-FRET assay
[24] = Toxicity in athymic nude mouse xenografted with rat Rat1 cells expressing myr-p110alpha assessed as body weight change at 20 mg/kg,po qd measured after 14 to 22 days; assay type: organism-based; conditions: in vivo, time 14-22 day
[25] = Solubility of compound in simulated gastric fluid at pH 2 measured upto 30 mins by HPLC analysis; assay type: physicochemical
[26] = Solubility of compound in FaSSIF at pH 5.8 measured upto 120 mins by HPLC analysis; assay type: physicochemical
[27] = In vivo Inhibition of AKT phosphorylation at Ser473 residue in athymic nude mouse xenografted with rat Rat1-myr-p110alpha cells at 20 mg/kg, po qd measured after 14 hrs; assay type: functional
[28] = Effect on plasma insulin level in athymic nude mouse xenografted with rat Rat1 cells expressing myr-p110alpha at 3 mg/kg, po qd measured upto 14 hrs by glucometer analysis; assay type: toxicity, organism-based; conditions: in vivo
[29] = Tmax in beagle dog at 0.3 mg/kg,po or 0.1 mg/kg,iv measured upto 24 hrs by LC-MS/MS analysis; assay type: ADME, organism-based, Canis lupus familiaris; conditions: in vivo
Rat1 [30] = assay: Antitumor activity at rat Rat1 cells expressing myr-p110alpha xenografted in athymic nude mouse assessed as T/C ratio at 10 mg/kg, po qd measured after 14 to 22 days; assay type: functional; conditions: time 14-22 day
[31] = Tmax in Beagle dog at 5.4 mg/kg, po measured upto 24 hrs using PVP-ASD form of sample by LC-MS/MS analysis; assay type: ADME, organism-based, Canis lupus familiaris; conditions: in vivo
[32] = AUC in Sprague-Dawley rat at 1 mg/kg, iv measured for 0.083 to 48 hrs by LC-MS/MS analysis; assay type: ADME, organism-based; design: time upper 48 hrs, dose 1 mg/kg, time lower 0.083 hrs, route iv; conditions: in vivo
[33] = Half life in Beagle dog at 6 mg/kg, po measured upto 24 hrs using crystalline form of sample by LC-MS/MS analysis; assay type: ADME, organism-based, Canis lupus familiaris; conditions: in vivo
[34] = Tlast in athymic nude mouse xenografted with rat Rat1 cells expressing myr-p110alpha at 20 mg/kg, po measured after 8 days by LC-MS/MS analysis; assay type: ADME, organism-based; conditions: in vivo, 192 h, time 8 day
[35] = target: Phosphatidylinositol 4,5-bisphosphate 3-kinase catalytic subunit beta isoform (Homo sapiens, UniProt P42338); assay: Inhibition of PI3Kbeta (unknown origin) using L-alpha-phosphatidylinositol as substrate in presence of ATP by Kinase Glo luminescence assay
Chain of Phosphatidylinositol 4,5-bisphosphate 3-kinase catalytic subunit beta isoform (P42338 whole entry, canonical isoform): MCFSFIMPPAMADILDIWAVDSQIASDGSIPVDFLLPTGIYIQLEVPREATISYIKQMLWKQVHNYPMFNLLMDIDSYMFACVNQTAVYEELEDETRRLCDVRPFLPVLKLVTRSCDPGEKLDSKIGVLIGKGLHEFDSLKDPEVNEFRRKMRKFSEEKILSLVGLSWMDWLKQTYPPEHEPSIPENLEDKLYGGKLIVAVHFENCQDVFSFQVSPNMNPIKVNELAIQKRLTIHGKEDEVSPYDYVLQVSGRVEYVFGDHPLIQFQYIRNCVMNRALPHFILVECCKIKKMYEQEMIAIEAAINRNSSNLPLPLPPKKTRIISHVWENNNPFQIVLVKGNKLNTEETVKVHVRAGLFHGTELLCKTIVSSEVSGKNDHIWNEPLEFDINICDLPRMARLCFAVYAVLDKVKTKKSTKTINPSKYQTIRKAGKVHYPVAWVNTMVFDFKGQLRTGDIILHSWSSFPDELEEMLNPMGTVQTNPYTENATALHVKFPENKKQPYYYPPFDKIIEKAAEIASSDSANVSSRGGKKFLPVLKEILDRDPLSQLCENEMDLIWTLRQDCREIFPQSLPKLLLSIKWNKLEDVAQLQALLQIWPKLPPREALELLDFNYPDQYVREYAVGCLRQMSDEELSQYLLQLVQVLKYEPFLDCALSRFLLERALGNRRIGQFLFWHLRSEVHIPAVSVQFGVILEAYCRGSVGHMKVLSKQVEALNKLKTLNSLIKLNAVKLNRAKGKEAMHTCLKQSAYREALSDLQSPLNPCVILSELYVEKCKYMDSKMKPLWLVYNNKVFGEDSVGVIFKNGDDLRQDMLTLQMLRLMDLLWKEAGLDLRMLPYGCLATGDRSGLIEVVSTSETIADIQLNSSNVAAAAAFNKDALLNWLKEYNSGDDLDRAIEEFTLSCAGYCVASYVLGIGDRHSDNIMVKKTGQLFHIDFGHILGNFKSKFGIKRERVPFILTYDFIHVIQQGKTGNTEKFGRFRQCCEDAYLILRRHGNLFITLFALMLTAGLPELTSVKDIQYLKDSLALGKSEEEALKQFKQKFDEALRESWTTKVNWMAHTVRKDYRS

[36] = Dose normalized AUC in Sprague-Dawley rat at 3 mg/kg, po measured upto 24 hrs by LC-MS/MS analysis; assay type: ADME, organism-based; conditions: in vivo
[37] = Aqueous solubility of compound in buffer at pH 4 by HPLC analysis; assay type: physicochemical
Mus musculus = assay: In vivo Inhibition of AKT phosphorylation at Ser473 residue in athymic nude mouse xenografted with rat Rat1-myr-p110alpha cells at 20 mg/kg, po qd measured after 1 to 10 hrs; assay type: functional, organism-based; conditions: time 1-10 hrs

Compound: C[C@H]1OC(=O)N(c2nc(-c3cnc(N)nc3C(F)(F)F)cc(N3CCOCC3)n2)[C@H]1CO
- pIC50 [1]: 7.25
- AUC/dose [2]: 11213 nM·h
- concentration at 192 h [3]: 3 nM
- half-life [4]: 2 h
- inhibition in vivo at 3 mg/kg [5]: 80%
- T/C (Rat1 [6]): 0.04
- fraction unbound at 4 h [7]: 0.29
- Tmax [8]: 4 h
- Pm (Caco-2): 73 10^-5 cm/min
- Cmax/dose [9]: 22 nM
- Tmax [10]: 2 h
- hepatic extraction ratio at 1 h [11]: 0.35
- T/C [12]: -0.2
- Tmax [13]: 1 h
- Ct [14]: 31 pmol/g
- AUC/dose [15]: 784 nM·h
- AUC(0-t) at 192 h [16]: 5.5 µM·h
- T/C (Rat1 [17]): -0.52
- Vdss [18]: 4.4 L/kg
- Tlast [19]: 24 h
- Ratio [20]: 2.2
- half-life [21]: 3.3 h
- solubility [22]: 29 µM (≈ 13.2 µg/mL)
- pIC50 [23]: 5.61
- Activity [24]: Non-Toxic
- solubility at 0.5 h [25]: 64 µM (≈ 29.1 µg/mL)
- solubility at 2 h [26]: 51 µM (≈ 23.2 µg/mL)
- inhibition in vivo at 20 mg/kg [27]: 76%
- Activity [28]: Non-Toxic
- Tmax [29]: 1.3 h
- T/C (Rat1 [30]): 0.14
- Tmax [31]: 2 h
- AUC [32]: 1.77 µM·h
- half-life [33]: 12.9 h
- Tlast [34]: 14 h
- pIC50 [35]: 8.08
- AUC/dose [36]: 1709 nM·h
- solubility [37]: 31 µM (≈ 14.1 µg/mL)
- inhibition (Mus musculus): Active
